Results published in patent US20150038435A1, “N-TERMINALLY MODIFIED OLIGOPEPTIDES AND USES THEREOF” (Novo Nordisk A/S, priority 2012, published 2015).
*: point of attachment. Lauroyl = CCCCCCCCCCCC(=O)*

How the values were obtained:
Chymotrypsin = assay: Inhibition of enzymatic degradation of a model GLP-1 (FRET substrate) by chymotrypsin; type: biochemical; conditions: compound 0.1 mM, buffer containing 8% DMSO
How it was run: (§1)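 MCA/DNP-labelled model GLP-1 FRET substrate (10 μl of 100 μM stock) in Dulbecco's PBS at 37° C with varying acylated peptide; fluorescence (ex 320/em 405 nm) read every minute for ≥30 min. Initial slopes from linear regression, duplicates averaged; EC50 by sigmoidal logistic fit of slope vs concentration.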

Trypsin = assay: Inhibition of enzymatic degradation of a model GLP-1 (FRET substrate) by trypsin; type: biochemical; conditions: compound 0.1 mM, buffer containing 8% DMSO
How it was run: as §1

[1] = Hydrophobicity: retention time during reverse phase HPLC; type: physicochemical; conditions: Acquity CSH C18; pH 7.2 buffer/CH3CN gradient; 40° C.
Excerpt: The retention time (RT) during reverse phase HPLC was taken as a measure of hydrophobicity of an N-terminally modified peptide or oligopeptide of the invention, where the connection is: The longer the RT, the more hydrophobic N-terminally modified peptide or oligopeptide. The following running conditions were applied during HPLC analysis:
Buffer B: 70% (v/v) aq. CH3CN

Substance	Slope of the initial increase in fluorescence obtained during incubation with 0.001 mg/ml Chymotrypsin (Chymotrypsin)	Slope of the initial increase in fluorescence obtained during incubation with 0.001 mg/ml Trypsin (Trypsin)	RT (retention time during reverse phase HPLC as a measure of hydrophobicity) [1]
N-dodecanoyl-Ala-Gly-Pro-Tyr-OH (Lauroyl-AGPY-OH; SMILES CCCCCCCCCCCC(=O)N[C@@H](C)C(=O)NCC(=O)N1CCC[C@H]1C(=O)N[C@@H](Cc1ccc(O)cc1)C(=O)O) [Example 78]	1.03	1.87	5.59 min
N-dodecanoyl-Ala-His-Pro-Tyr-OH (Lauroyl-AHPY-OH; SMILES CCCCCCCCCCCC(=O)N[C@@H](C)C(=O)N[C@@H](Cc1c[nH]cn1)C(=O)N1CCC[C@H]1C(=O)N[C@@H](Cc1ccc(O)cc1)C(=O)O) [Example 79]	0.51	1.93	5.29 min
N-dodecanoyl-Ala-Ile-Pro-Tyr-OH (Lauroyl-AIPY-OH; SMILES CCCCCCCCCCCC(=O)N[C@@H](C)C(=O)N[C@H](C(=O)N1CCC[C@H]1C(=O)N[C@@H](Cc1ccc(O)cc1)C(=O)O)[C@@H](C)CC) [Example 80]	0.10	1.83	7.24 min
N-dodecanoyl-Ala-Leu-Pro-Tyr-OH (Lauroyl-ALPY-OH; SMILES CCCCCCCCCCCC(=O)N[C@@H](C)C(=O)N[C@@H](CC(C)C)C(=O)N1CCC[C@H]1C(=O)N[C@@H](Cc1ccc(O)cc1)C(=O)O) [Example 81]	0.40	1.90	7.38 min
N-dodecanoyl-Ala-Lys-Pro-Tyr-OH (Lauroyl-AKPY-OH; SMILES CCCCCCCCCCCC(=O)N[C@@H](C)C(=O)N[C@@H](CCCCN)C(=O)N1CCC[C@H]1C(=O)N[C@@H](Cc1ccc(O)cc1)C(=O)O) [Example 82]	0.24	1.50	5.07 min
N-dodecanoyl-Ala-Met-Pro-Tyr-OH (Lauroyl-AMPY-OH; SMILES CCCCCCCCCCCC(=O)N[C@@H](C)C(=O)N[C@@H](CCSC)C(=O)N1CCC[C@H]1C(=O)N[C@@H](Cc1ccc(O)cc1)C(=O)O) [Example 83]	0.32	1.64	6.88 min
N-dodecanoyl-Ala-Phe-Pro-Tyr-OH (Lauroyl-AFPY-OH; SMILES CCCCCCCCCCCC(=O)N[C@@H](C)C(=O)N[C@@H](Cc1ccccc1)C(=O)N1CCC[C@H]1C(=O)N[C@@H](Cc1ccc(O)cc1)C(=O)O) [Example 84]	0.14	1.43	7.77 min
N-dodecanoyl-Ala-Pro-Pro-Tyr-OH (Lauroyl-APPY-OH; SMILES CCCCCCCCCCCC(=O)N[C@@H](C)C(=O)N1CCC[C@H]1C(=O)N1CCC[C@H]1C(=O)N[C@@H](Cc1ccc(O)cc1)C(=O)O) [Example 85]	1.81	1.92	6.1 min
N-dodecanoyl-Ala-Ser-Pro-Tyr-OH (Lauroyl-ASPY-OH; SMILES CCCCCCCCCCCC(=O)N[C@@H](C)C(=O)N[C@@H](CO)C(=O)N1CCC[C@H]1C(=O)N[C@@H](Cc1ccc(O)cc1)C(=O)O) [Example 86]	0.33	1.89	5.64 min
N-dodecanoyl-Ala-Thr-Pro-Tyr-OH (Lauroyl-ATPY-OH; SMILES CCCCCCCCCCCC(=O)N[C@@H](C)C(=O)N[C@H](C(=O)N1CCC[C@H]1C(=O)N[C@@H](Cc1ccc(O)cc1)C(=O)O)[C@@H](C)O) [Example 87]	0.48	1.91	5.76 min
N-dodecanoyl-Ala-Trp-Pro-Tyr-OH (Lauroyl-AWPY-OH; SMILES CCCCCCCCCCCC(=O)N[C@@H](C)C(=O)N[C@@H](Cc1c[nH]c2ccccc12)C(=O)N1CCC[C@H]1C(=O)N[C@@H](Cc1ccc(O)cc1)C(=O)O) [Example 88]	0.11	0.80	7.88 min
N-dodecanoyl-Ala-Tyr-Pro-Tyr-OH (Lauroyl-AYPY-OH; SMILES CCCCCCCCCCCC(=O)N[C@@H](C)C(=O)N[C@@H](Cc1ccc(O)cc1)C(=O)N1CCC[C@H]1C(=O)N[C@@H](Cc1ccc(O)cc1)C(=O)O) [Example 89]	0.80	1.86	6.23 min
N-dodecanoyl-Ala-Val-Pro-Tyr-OH (Lauroyl-AVPY-OH; SMILES CCCCCCCCCCCC(=O)N[C@@H](C)C(=O)N[C@H](C(=O)N1CCC[C@H]1C(=O)N[C@@H](Cc1ccc(O)cc1)C(=O)O)C(C)C) [Example 90]	0.35	1.25	6.6 min
N-dodecanoyl-Ala-Val-Tyr-OH [Example 112]	1.44	2.35	6.6 min
N-dodecanoyl-Arg-Ala-Ala-Pro-Tyr-OH [Example 91]	0.00	1.06	4.63 min
N-dodecanoyl-Arg-Ala-Pro-Tyr-OH (Lauroyl-RAPY-OH; SMILES CCCCCCCCCCCC(=O)N[C@@H](CCCNC(=N)N)C(=O)N[C@@H](C)C(=O)N1CCC[C@H]1C(=O)N[C@@H](Cc1ccc(O)cc1)C(=O)O) [Example 92]	0.23	1.44	4.84 min
N-dodecanoyl-Arg-Pro-Tyr-OH [Example 113]	0.18	2.00	5.29 min
N-dodecanoyl-Asn-Ala-Ala-Pro-Tyr-OH [Example 93]	0.14	1.90	4.84 min
N-dodecanoyl-Asn-Ala-Pro-Tyr-OH (Lauroyl-NAPY-OH; SMILES CCCCCCCCCCCC(=O)N[C@@H](CC(N)=O)C(=O)N[C@@H](C)C(=O)N1CCC[C@H]1C(=O)N[C@@H](Cc1ccc(O)cc1)C(=O)O) [Example 94]	1.83	1.90	4.77 min
N-dodecanoyl-Asn-Pro-Tyr-OH [Example 114]	2.01	1.99	5.07 min
N-dodecanoyl-Asp-Ala-Ala-Pro-Tyr-OH [Example 95]	0.10	1.82	3.92 min
N-dodecanoyl-Asp-Ala-Pro-Tyr-OH (Lauroyl-DAPY-OH; SMILES CCCCCCCCCCCC(=O)N[C@@H](CC(=O)O)C(=O)N[C@@H](C)C(=O)N1CCC[C@H]1C(=O)N[C@@H](Cc1ccc(O)cc1)C(=O)O) [Example 96]	1.63	1.78	3.86 min
N-dodecanoyl-Asp-Pro-Tyr-OH [Example 115]	2.04	1.73	3.91 min
N-dodecanoyl-Gln-Ala-Ala-Pro-Tyr-OH [Example 102]	0.14	1.66	4.82 min
N-dodecanoyl-Gln-Ala-Pro-Tyr-OH (Lauroyl-QAPY-OH; SMILES CCCCCCCCCCCC(=O)N[C@@H](CCC(N)=O)C(=O)N[C@@H](C)C(=O)N1CCC[C@H]1C(=O)N[C@@H](Cc1ccc(O)cc1)C(=O)O) [Example 103]	1.13	1.78	4.92 min
